# In ChEMBL document CHEMBL1795250, “Synthesis and base-pairing properties of C-nucleotides having 1-substituted 1H-1,2,3-triazoles” (Bioorg Med Chem Lett, 2009):
# Columns and labels:
# Format in all cases: nucleic-acid assay
# Nucleic Acid [1] = experiment: Stabilization of 5'-AGAGAGACAGAAAAA-3' ssDNA sequence assessed as melting temperature at pH7 using 100 mM NaCl
# Nucleic Acid [2] = experiment: Stabilization of 5'-AGAGAGAAAGAAAAA-3' ssDNA sequence assessed as melting temperature at pH7 using 100 mM NaCl
# Nucleic Acid [3] = experiment: Stabilization of 5'-AGAGAGATAGAAAAA-3' ssDNA sequence assessed as melting temperature at pH7 using 100 mM NaCl
# Nucleic Acid [4] = experiment: Stabilization of 5'-AGAGAGAGAGAAAAA-3' ssDNA sequence assessed as melting temperature at pH7 using 100 mM NaCl
Tm (Nucleic Acid [1]) [°C],Tm (Nucleic Acid [2]) [°C],Tm (Nucleic Acid [3]) [°C],Tm (Nucleic Acid [4]) [°C],Compound
34,34,33,37,Cc1cn([C@H]2C[C@H](OP(=O)(O)OC[C@H]3O[C@@H](n4cc(C)c(=O)[nH]c4=O)C[C@@H]3OP(=O)(O)OC[C@H]3O[C@@H](n4cc(C)c(N)nc4=O)C[C@@H]3OP(=O)(O)OC[C@H]3O[C@@H](n4cc(C)c(=O)[nH]c4=O)C[C@@H]3OP(=O)(O)OC[C@H]3O[C@@H](n4cc(C)c(N)nc4=O)C[C@@H]3OP(=O)(O)OC[C@H]3O[C@@H](n4cc(C)c(=O)[nH]c4=O)C[C@@H]3O)[C@@H](COP(=O)(O)O[C@H]3C[C@H](n4cc(C)c(=O)[nH]c4=O)O[C@@H]3COP(=O)(O)O[C@H]3C[C@H](c4cn(C5CCCCC5)nn4)O[C@@H]3COP(=O)(O)O[C@H]3C[C@H](n4cc(C)c(=O)[nH]c4=O)O[C@@H]3COP(=O)(O)O[C@H]3C[C@H](n4cc(C)c(N)nc4=O)O[C@@H]3COP(=O)(O)O[C@H]3C[C@H](n4cc(C)c(=O)[nH]c4=O)O[C@@H]3COP(=O)(O)O[C@H]3C[C@H](n4cc(C)c(=O)[nH]c4=O)O[C@@H]3COP(=O)(O)O[C@H]3C[C@H](n4cc(C)c(=O)[nH]c4=O)O[C@@H]3COP(=O)(O)O[C@H]3C[C@H](n4cc(C)c(=O)[nH]c4=O)O[C@@H]3COP(=O)(O)O[C@H]3C[C@H](n4cc(C)c(=O)[nH]c4=O)O[C@@H]3CO)O2)c(=O)nc1N
29,32,31,32,C#C[C@H]1C[C@H](OP(=O)(O)OC[C@H]2O[C@@H](n3cc(C)c(=O)[nH]c3=O)C[C@@H]2OP(=O)(O)OC[C@H]2O[C@@H](n3cc(C)c(N)nc3=O)C[C@@H]2OP(=O)(O)OC[C@H]2O[C@@H](n3cc(C)c(=O)[nH]c3=O)C[C@@H]2OP(=O)(O)OC[C@H]2O[C@@H](n3cc(C)c(N)nc3=O)C[C@@H]2OP(=O)(O)OC[C@H]2O[C@@H](n3cc(C)c(=O)[nH]c3=O)C[C@@H]2OP(=O)(O)OC[C@H]2O[C@@H](n3cc(C)c(N)nc3=O)C[C@@H]2OP(=O)(O)OC[C@H]2O[C@@H](n3cc(C)c(=O)[nH]c3=O)C[C@@H]2O)[C@@H](COP(=O)(O)O[C@H]2C[C@H](n3cc(C)c(=O)[nH]c3=O)O[C@@H]2COP(=O)(O)O[C@H]2C[C@H](n3cc(C)c(N)nc3=O)O[C@@H]2COP(=O)(O)O[C@H]2C[C@H](n3cc(C)c(=O)[nH]c3=O)O[C@@H]2COP(=O)(O)O[C@H]2C[C@H](n3cc(C)c(=O)[nH]c3=O)O[C@@H]2COP(=O)(O)O[C@H]2C[C@H](n3cc(C)c(=O)[nH]c3=O)O[C@@H]2COP(=O)(O)O[C@H]2C[C@H](n3cc(C)c(=O)[nH]c3=O)O[C@@H]2COP(=O)(O)O[C@H]2C[C@H](n3cc(C)c(=O)[nH]c3=O)O[C@@H]2CO)O1
